Where a chain is given by its changes, count along the chain named. Names may count otherwise.
What was measured:
hDHFR N64F = target: T1, hDHFR N64F (Homo sapiens, UniProt P00374, N65F); experiment: Standard DHFR assay, kinetic constants; assay type: biochemical; details: read-out: Km NADPH
T1 sequence (P00374 1-187 N65F): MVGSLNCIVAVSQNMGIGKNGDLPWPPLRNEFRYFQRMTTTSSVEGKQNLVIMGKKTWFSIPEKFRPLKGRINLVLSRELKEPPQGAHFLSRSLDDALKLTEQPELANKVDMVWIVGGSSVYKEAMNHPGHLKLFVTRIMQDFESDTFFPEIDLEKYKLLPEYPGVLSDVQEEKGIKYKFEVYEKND

hDHFR Q35K = target: T2, hDHFR Q35K (Homo sapiens, UniProt P00374, Q36K); experiment: Standard DHFR assay, kinetic constants; assay type: biochemical; details: read-out: Km NADPH
T2 sequence (P00374 1-187 Q36K): T1 sequence (P00374 1-187 N65F) with Q36K, F65N

hDHFR Q35S = target: T3, hDHFR Q35S (Homo sapiens, UniProt P00374, Q36S); experiment: Standard DHFR assay, kinetic constants; assay type: biochemical; details: read-out: Km NADPH
T3 sequence (P00374 1-187 Q36S): T1 sequence (P00374 1-187 N65F) with Q36S, F65N

hDHFR = target: T4, hDHFR (Homo sapiens, UniProt P00374); experiment: Standard DHFR assay, kinetic constants; assay type: biochemical; details: read-out: Km NADPH; wild type hDHFR
T4 sequence (P00374 1-187): T1 sequence (P00374 1-187 N65F) with F65N

pcDHFR = pcDHFR (Pneumocystis carinii, UniProt P16184); assay type: biochemical; details: read-out: Km NADPH
pjDHFR = target: T5, pjDHFR (Pneumocystis jirovecii, UniProt Q9UUP5); experiment: Standard DHFR assay; details: read-out: Km NADPH, substrate at saturating concentration
T5 sequence (Q9UUP5 1-206): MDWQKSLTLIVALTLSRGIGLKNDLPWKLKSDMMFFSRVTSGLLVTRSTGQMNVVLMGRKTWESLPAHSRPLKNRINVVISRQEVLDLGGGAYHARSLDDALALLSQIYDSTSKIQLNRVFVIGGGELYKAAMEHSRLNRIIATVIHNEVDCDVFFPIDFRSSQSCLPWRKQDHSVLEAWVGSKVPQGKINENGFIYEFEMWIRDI

hDHFR Q35S/N64S = target: T6, hDHFR Q35S/N64S (Homo sapiens, UniProt P00374, N65S/Q36S); experiment: Standard DHFR assay, kinetic constants; assay type: biochemical; details: read-out: Km NADPH
T6 sequence (P00374 1-187 Q36S/N65S): T1 sequence (P00374 1-187 N65F) with Q36S, F65S

hDHFR Q35S/N64F = target: T7, hDHFR Q35S/N64F (Homo sapiens, UniProt P00374, N65F/Q36S); experiment: Standard DHFR assay, kinetic constants; assay type: biochemical; details: read-out: Km NADPH
T7 sequence (P00374 1-187 Q36S/N65F): T1 sequence (P00374 1-187 N65F) with Q36S

hDHFR Q35K/N64F = target: T8, hDHFR Q35K/N64F (Homo sapiens, UniProt P00374, N65F/Q36K); experiment: Standard DHFR assay, kinetic constants; assay type: biochemical; details: read-out: Km NADPH
T8 sequence (P00374 1-187 Q36K/N65F): T1 sequence (P00374 1-187 N65F) with Q36K

hDHFR N64S = target: T9, hDHFR N64S (Homo sapiens, UniProt P00374, N65S); experiment: Standard DHFR assay, kinetic constants; assay type: biochemical; details: read-out: Km NADPH
T9 sequence (P00374 1-187 N65S): T1 sequence (P00374 1-187 N65F) with F65S

hDHFR Q35K/N64S = target: T10, hDHFR Q35K/N64S (Homo sapiens, UniProt P00374, N65S/Q36K); experiment: Standard DHFR assay, kinetic constants; assay type: biochemical; details: read-out: Km NADPH
T10 sequence (P00374 1-187 Q36K/N65S): T1 sequence (P00374 1-187 N65F) with Q36K, F65S

[1] = substrate: Nc1nc2c(c(=O)[nH]1)N=C(CNc1ccc(C(=O)N[C@@H](CCC(=O)O)C(=O)O)cc1)CN2; experiment: purified protein, by the assay type; details: pH 7.4

Sequence of pcDHFR (P16184 whole entry): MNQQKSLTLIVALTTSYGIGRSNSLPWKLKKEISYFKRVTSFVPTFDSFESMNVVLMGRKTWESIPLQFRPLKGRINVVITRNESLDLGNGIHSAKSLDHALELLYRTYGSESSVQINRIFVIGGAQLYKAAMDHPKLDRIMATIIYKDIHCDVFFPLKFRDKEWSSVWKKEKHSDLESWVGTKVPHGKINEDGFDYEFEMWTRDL

NC(=O)C1=CN([C@@H]2O[C@H](COP(=O)(O)OP(=O)(O)OC[C@H]3O[C@@H](n4cnc5c(N)ncnc54)[C@H](OP(=O)(O)O)[C@@H]3O)[C@@H](O)[C@H]2O)C=CC1 [NADPH]
Km (hDHFR N64F): 7.5 ± 3.1 µM | Km (hDHFR Q35K): 12.5 µM | Km (hDHFR Q35S): 3.8 ± 1.4 µM | Km (hDHFR): 4.5 ± 1.2 µM | Km (pcDHFR): 16 ± 2 µM | Km (pjDHFR): 19 ± 1 µM | Km (hDHFR Q35S/N64S): 5.3 ± 1.5 µM | Km (hDHFR Q35S/N64F): 5.6 ± 0.5 µM | Km (hDHFR Q35K/N64F): 5.7 ± 1.1 µM | Km (hDHFR N64S): 6.3 µM | Km (hDHFR Q35K/N64S): 6.6 ± 1.8 µM

B1: hDHFR Q35K/N64S (Homo sapiens; N65S/Q36K) (protein)
chain: T1 sequence (P00374 1-187 N65F) with Q36K, F65S
Km ([1]; other: hDHFR Q35K/N64S, 37.0 °C): 0.7 ± 0.2 (n=6) μM

B2: hDHFR Q35S/N64F (Homo sapiens; N65F/Q36S) (protein)
chain: T1 sequence (P00374 1-187 N65F) with Q36S
Km ([1]; other: hDHFR Q35S/N64F, 37.0 °C): 0.7 ± 0.2 (n=5) μM

B3: hDHFR (Homo sapiens) (protein)
chain: T1 sequence (P00374 1-187 N65F) with F65N
Km ([1]; other: wild type hDHFR, 37.0 °C): 0.7 ± 0.1 (n=8) μM

B4: hDHFR N64S (Homo sapiens; N65S) (protein)
chain: T1 sequence (P00374 1-187 N65F) with F65S
Km ([1]; other: hDHFR N64S, 37.0 °C): 0.9 ± 0.3 (n=3) μM

B5: hDHFR Q35S (Homo sapiens; Q36S) (protein)
chain: T1 sequence (P00374 1-187 N65F) with Q36S, F65N
Km ([1]; other: hDHFR Q35S, 37.0 °C): 0.7 ± 0.2 (n=4) μM

B6: pjDHFR (Pneumocystis jirovecii) (protein)
chain: T5 sequence (Q9UUP5 1-206)
Km ([1]; other: pjDHFR, cofactor at saturating concentration): 2.2 ± 0.2^1 (n=13) μM
